# Assay results: US12564595B2, “Prophylactic and therapeutic pharmaceutical agent for HIV infectious diseases characterized by comprising combination of integrase inhibitor and anti-HIV agent” (Shionogi & Co., Ltd., priority 2019, dated 2026)
# Where two headings read alike, the source gives them in different places.
# What was measured:
# HIV [1] = test: microbe, parasite or virus in culture; type: cell-based; settings: Human immunodeficiency virus 1, MT4, 96 h, read-out: EC50 (50% HIV inhibition concentration), MT-4 cells, HIV, cultured four days, MTT
# Procedure: A serial dilution series of test samples was prepared in 96-well microplates (50 μL/well).
# 100 μL/well in each case were dispensed onto plates having test samples of 2.5×10^5/mL MT-4 cell suspension, and HIV virus solution was then dispensed thereto in the amount of 50 μL/well. Mixing was performed using a plate mixer and culturing was performed for four days in a CO2 incubator. MTT (3-(4,5-dimethylthiazol-2-yl)-2,5-diphenyltetrazolium bromide) liquid was dispensed into each well in the amount of 30 μL in each case. The reaction was conducted for 1 h in a CO2 incubator. 150 μL of supernatant were removed from each well, taking care not to aspirate any cells. 150 μL of cell solution were added, and thorough mixing was performed with a plate mixer until all the cells had been dissolved. The optical absorbance of the mixed plates was measured at two wavelengths: 560 nm/690 nm, with a microplate reader.
# HIV [2] = test: Test Example 3: test for confirmation of combined use effect; type: cell-based; design: key to D value (dosewise additivity value): <-0.1 synergy, -0.1 to 0.1 additive, >0.1 antagonism
# From the text: The two compounds in respect of which the effect of combined use was desired to be examined were mixed in various ratios, and the anti-HIV activity (50% HIV inhibiting concentration) for each combination was found by the method of test example 1. […] A brief description of the method of calculating the D value is given below.
# The D value that is found by evaluating the anti-HIV activity of respective combinations of M concentrations of compound X1 and N concentrations of compound X2 is calculated by the following mathematical expression 1.
# The effect of combined use was evaluated in terms of the D value in accordance with the following criteria • −0.5 to −0.2: strong synergetic effect • −0.2 to −0.1: weak synergetic effect • […]: additive synergetic effect • 0.1 to 0.2: weak antagonism • 0.2 to 0.5: strong antagonism
# [3] = Test Example 8: metabolic stability test; type: in vitro ADME, human; settings: pooled human liver microsomes, 30 min at 37° C., NADPH, compound concentration 0.5 μmol/L
# Procedure: The extent of metabolization of the compound according to the present invention in the liver was evaluated by reacting commercially available pooled human liver microsomes with the compound according to the present invention for a fixed time and calculating the remaining percentage by comparing the reaction sample with an unreacted sample.
# The reaction (oxidative reaction) was conducted for 0 min or 30 min at 37° C. in the presence of 1 mmol/L of NADPH, in a 0.2 mL buffer solution containing 0.5 mg of human liver microsome protein/mL (50 mmol/L Tris-HCl pH 7.4, 150 mmol/L potassium chloride, 10 mmol/L magnesium chloride). After the reaction, 50 μL of reaction liquid were added to 100 μL of methanol/acetonitrile=1/1 (v/v) solution, mixed, and centrifuged for 15 minutes at 3000 rpm. The compound according to the present invention in the centrifuged supernatant was quantified using LC/MS/MS or solid phase extraction (SPE)/MS; the residual amount of the compound according to the present invention after the reaction was calculated, taking the amount of the compound at the 0 min reaction point as 100%.
# [4] = tested on: HIV mutant strain 2 (E92Q/E138T/G140S/Q148H); test: Test Example 2: resistance evaluation test (HeLa-CD4 reporter), mutant strain 2; type: cell-based; settings: FC=EC50 of mutant strain/EC50 of wild strain; HeLa-CD4 cells
# Procedure: (§1) A serial dilution series of test samples in 96-well microplates was prepared (50 […]).
# (§2) 2.5×10^4/mL of HeLa-CD4 cell suspension was dispensed into each of the microplates containing test sample, in the amount of 100 μL/well, and HIV virus liquid (wild strain and mutant strain) was then dispensed in an amount of 50 μL/well. Mixing was performed using a plate mixer and culturing was performed for three days in a CO2 incubator. After removing the cultured supernatant of each well by suction, 100 μL of the cell solution buffer in the reporter measurement kit was dispensed thereto, and freezing was conducted in a refrigerator (−80° C.). The plates frozen in the refrigerator were defrosted at room temperature, then mixed using a plate mixer and centrifuged for 5 min at 1,200 rpm. The supernatant of each well was divided to 96-well microplates (BLACK) in the amount of 20 μL in each case. The chemiluminescence reagent in the reporter assay kit was dispensed in the amount of 100 μL in each case, and, after reacting for about 1 h at room temperature, the amount of luminescence was measured using a MicroBeta TRILUX.
# (§3) The degree of resistance (fold change (FC)) of each mutant strain was also calculated using the following formula. FC=EC50 of mutant strain/EC50 of wild strain (Results)
# (§4) The results of the example compounds relating to formula (I) of (A) are shown below. The […] in respect of mutant strain 1 (E138K/G140S/Q148H/N155H) and the FC in respect of mutant strain 2 (E92Q/E138T/G140S/Q148H) are shown in the Table.
# [5] = tested on: HIV mutant strain 1 (E138K/G140S/Q148H/N155H); test: Test Example 2: resistance evaluation test (HeLa-CD4 reporter), mutant strain 1; type: cell-based; settings: FC=EC50 of mutant strain/EC50 of wild strain; HeLa-CD4 cells
# Procedure: as §1, §2, §3, §4
# [6] = compounds of formula (I) of (A)
# [7] = combination with compound (B) Compound C (CAI)
# [8] = combination with compound (B) Darunavin (PI)
# [9] = combination with compound (B) Darunavir (PI)
# [10] = combination with compound (B) GS-6207 (CAI)
# [11] = combination with compound (B) GSK2838232 (maturation inhibitor)
# [12] = combination with compound (B) Lilpiperine (polymerase inhibitor)
# [13] = combination with compound (B) Ramipzin (3TC) (polymerase inhibitor)
# [14] = combination with compound (B) Rilpivirine (polymerase inhibitor)
# [15] = combination with compound (B) I′-189 (INLAI)
# [16] = combination with compound (B) VM-1500 (polymerase inhibitor)
# [17] = compounds of formula (I′) of (B)
SMILES,EC50 (HIV [1]; [6]),Remaining percentage [3],FC in respect of mutant strain 2 (E92Q/E138T/G140S/Q148H) [4],FC in respect of mutant strain 1 (E138K/G140S/Q148H/N155H) [5],EC50 (HIV [1]; [17]),other results
CC(C)N1C(=O)c2c(O)c(=O)c(C(=O)NCc3ccc(F)cc3F)cn2N2CCCC[C@@H]12 [Compound I-004],2.5 nM,–,–,–,–,–
CC(C)N1C(=O)c2c(O)c(=O)c(C(=O)NCc3c(F)cc(F)cc3F)cn2N2CCOC[C@@H]12 [II-022],0.39 nM,–,–,–,–,–
C[C@H]1C[C@H]2N(C)C(=O)c3c(O)c(=O)c(C(=O)NCc4cccc(Cl)c4F)cn3N2C1 [II-036],–,97.4%,7.9,15,–,D value (dosewise additivity value) (HIV [2]; [7]): 0.032; effect of combined use (HIV [2]; [7]): Additive (−0.1 to −0.1: additive synergetic effect); D value (dosewise additivity value) (HIV [2]; [8]): −0.115; effect of combined use (HIV [2]; [9]): Weak synergy (−0.2 to −0.1: weak synergetic effect); D value (dosewise additivity value) (HIV [2]; [10]): −0.117; effect of combined use (HIV [2]; [10]): Weak synergy (−0.2 to −0.1: weak synergetic effect); D value (dosewise additivity value) (HIV [2]; [11]): 0.021; effect of combined use (HIV [2]; [11]): Additive (−0.1 to −0.1: additive synergetic effect); effect of combined use (HIV [2]; [12]): Additive (−0.1 to −0.1: additive synergetic effect); D value (dosewise additivity value) (HIV [2]; [13]): −0.184; effect of combined use (HIV [2]; [13]): Weak synergy (−0.2 to −0.1: weak synergetic effect); D value (dosewise additivity value) (HIV [2]; [14]): −0.044
CCN1C(=O)c2c(O)c(=O)c(C(=O)NCc3ccc(F)cc3F)cn2N2CC[C@@H](C)C[C@@H]12 [II-068],0.25 nM,82.9%,4.2,7,–,–
CCN1C(=O)c2c(O)c(=O)c(C(=O)NCc3cccc(C(F)(F)F)c3F)cn2N2CCCC[C@@H]12 [II-074],18 nM,–,–,–,–,–
CCN1C(=O)c2c(O)c(=O)c(C(=O)NCc3ccc(C#N)cc3)cn2N2CCCC[C@@H]12 [II-090],18 nM,–,–,–,–,–
CN1C(=O)c2c(O)c(=O)c(C(=O)NCc3cccc(Cl)c3F)cn2N2CCCC[C@@H]12 [II-092],–,101%,7.7,6.8,–,D value (dosewise additivity value) (HIV [2]; [7]): 0.056; effect of combined use (HIV [2]; [7]): Additive (−0.1 to −0.1: additive synergetic effect); D value (dosewise additivity value) (HIV [2]; [8]): −0.117; effect of combined use (HIV [2]; [9]): Weak synergy (−0.2 to −0.1: weak synergetic effect); D value (dosewise additivity value) (HIV [2]; [10]): −0.093; effect of combined use (HIV [2]; [10]): Additive (−0.1 to −0.1: additive synergetic effect); D value (dosewise additivity value) (HIV [2]; [11]): 0.000; effect of combined use (HIV [2]; [11]): Additive (−0.1 to −0.1: additive synergetic effect); effect of combined use (HIV [2]; [12]): Additive (−0.1 to −0.1: additive synergetic effect); D value (dosewise additivity value) (HIV [2]; [13]): −0.118; effect of combined use (HIV [2]; [13]): Weak synergy (−0.2 to −0.1: weak synergetic effect); D value (dosewise additivity value) (HIV [2]; [14]): −0.022
CCN1C(=O)c2c(O)c(=O)c(C(=O)NCc3c(F)cc(F)cc3F)cn2N2[C@H](COC)CC[C@@H]12 [II-093],0.22 nM,96.1%,25,49,–,–
CCN1C(=O)c2c(O)c(=O)c(C(=O)NCc3c(F)cc(F)cc3F)cn2N2C[C@@H](C)CC[C@@H]12 [II-096],–,90.7%,8.9,6.4,–,D value (dosewise additivity value) (HIV [2]; [7]): 0.065; effect of combined use (HIV [2]; [7]): Additive (−0.1 to −0.1: additive synergetic effect); D value (dosewise additivity value) (HIV [2]; [8]): −0.130; effect of combined use (HIV [2]; [9]): Weak synergy (−0.2 to −0.1: weak synergetic effect); D value (dosewise additivity value) (HIV [2]; [10]): −0.125; effect of combined use (HIV [2]; [10]): Weak synergy (−0.2 to −0.1: weak synergetic effect); D value (dosewise additivity value) (HIV [2]; [11]): 0.001; effect of combined use (HIV [2]; [11]): Additive (−0.1 to −0.1: additive synergetic effect); D value (dosewise additivity value) (HIV [2]; [15]): 0.070; effect of combined use (HIV [2]; [15]): Additive (−0.1 to −0.1: additive synergetic effect); effect of combined use (HIV [2]; [12]): Additive (−0.1 to −0.1: additive synergetic effect); D value (dosewise additivity value) (HIV [2]; [13]): −0.177; effect of combined use (HIV [2]; [13]): Weak synergy (−0.2 to −0.1: weak synergetic effect); D value (dosewise additivity value) (HIV [2]; [14]): −0.035; D value (dosewise additivity value) (HIV [2]; [16]): −0.115; effect of combined use (HIV [2]; [16]): Weak synergy (−0.2 to −0.1: weak synergetic effect)
CN1C(=O)c2c(O)c(=O)c(-c3nnc(Cc4ccc(F)cc4F)s3)cn2N2CCOC[C@@H]12 [II-102],1.3 nM,106%,22,25,–,–
CCN1C(=O)c2c(O)c(=O)c(-c3nnc(Cc4c(F)cc(F)cc4F)s3)cn2N2C[C@@H](C)C[C@@H]12 [II-112],1.9 nM,90.5%,7,4.7,–,–
C[C@@H]1CC[C@H]2N(C)C(=O)c3c(O)c(=O)c(-c4nnc(Cc5ccc(F)cc5F)s4)cn3N12 [II-113],0.66 nM,85.3%,6.5,7.2,–,–
CCN1C(=O)c2c(O)c(=O)c(C(=O)NCc3ccc(F)cc3F)cn2N2[C@@H](C)c3cc(F)ccc3[C@@H]12 [II-140],0.67 nM,–,–,–,–,–
Cc1ccc(-c2c([C@H](OC(C)(C)C)C(=O)O)c(C)c3c4c2cc(C)n4CCN3C)cc1 [I′-001],–,–,–,–,0.69 nM,–
Cc1ccc(-c2c([C@H](OC(C)(C)C)C(=O)O)c(C)c3c4c2cc(C)n4CCN3CCN(C)C)cc1 [I′-027],–,–,–,–,9.9 nM,–
COCC[C@H]1Cn2c(C)cc3c(-c4ccc(Cl)cc4)c([C@H](OC(C)(C)C)C(=O)O)c(C)c(c32)N1S(C)(=O)=O [I′-043],–,–,–,–,1.4 nM,–
COc1cnc(N2CCn3c(C)cc4c(-c5ccc(C)cc5)c([C@H](OC(C)(C)C)C(=O)O)c(C)c2c43)nc1 [I′-189],–,–,–,–,1.6 nM,–
Cc1ccc(-c2c([C@H](OC(C)(C)C)C(=O)O)c(C)c3c4c2cc(C)n4CCN3c2ncc(OCCN(C)C)cn2)cc1 [I′-220],–,–,–,–,5.9 nM,–
Cc1ccc(-c2c([C@H](OC(C)(C)C)C(=O)O)c(C)c3c4c2cc(C)n4CCN3c2nc3c(s2)CCN(C)C3)cc1 [I′-292],–,–,–,–,2.5 nM,–
Cc1ccc(-c2c([C@H](OC(C)(C)C)C(=O)O)c(C)c3c4c2cc(C)n4CCN3c2ncc(CN(C)C)cn2)cc1 [I′-304],–,–,–,–,4.1 nM,–
